Assay results reported in patent US9040502B2, “Anti-XDR-TB drug, anti-MDR-TB drug, and combination anti-tuberculosis drug” (priority 2008, dated 2015).

Tested on: Mycobacterium tuberculosis XDR-TB (0306-0206)
Type: cell-based
Conditions: ratio method, concentrations as in Table 1

Row | Compound | Resistance or sensitivity of M. tuberculosis XDR-TB (0306-0206) to the drug
1 | [H]/N=C(/N)N[C@H]1[C@H](O)[C@@H](O)[C@H](O[C@@H]2O[C@@H](C)[C@](O)(C=O)[C@H]2O[C@@H]2O[C@@H](CO)[C@H](O)[C@@H](O)[C@@H]2NC)[C@@H](N/C(N)=N\[H])[C@@H]1O [SM, streptomycin] | resistant
2 | NNC(=O)c1ccncc1 [INH, isonicotinic acid hydrazide] | resistant
3 | N[C@@H]1CON=C1O [CS, cycloserine] | sensitive
4 | enviomycin [EVM] | resistant
5 | Nc1ccc(C(=O)O)c(O)c1 [PAS, para-amino-salicylic acid] | resistant
6 | CCc1cc(C(N)=S)ccn1 [TH, ethionamide] | resistant
7 | CC[C@@H](CO)NCCN[C@@H](CC)CO [EB, ethambutol] | resistant
